Active and inactive are the calls of the source. No cut-off for these calls is given here.
Tests used:
Mus musculus [1] = assay: Anticonvulsant activity in albino CF1 mouse assessed as protection against maximal electroshock-induced seizures at 100 mg/kg, ip measured after 1 hr; type: functional, organism-based; parameters: dose 100 mg/kg
Mus musculus [2] = assay: Anticonvulsant activity in albino CF1 mouse assessed as protection against maximal electroshock-induced seizures at 100 mg/kg, ip measured after 4 hrs; type: functional, organism-based; parameters: dose 100 mg/kg
Mus musculus [3] = assay: Neurotoxicity in albino CF1 mouse at 100 mg/kg, ip measured after 0.25 hr; type: toxicity, organism-based; parameters: dose 100 mg/kg, route intraperitoneal; settings: in vivo
Mus musculus [4] = assay: Neurotoxicity in albino CF1 mouse at 100 mg/kg, ip measured after 0.5 hr; type: toxicity, organism-based; parameters: dose 100 mg/kg, route intraperitoneal; settings: in vivo
Mus musculus [5] = assay: Neurotoxicity in albino CF1 mouse at 100 mg/kg, ip measured after 1 hr; type: toxicity, organism-based; parameters: dose 100 mg/kg, route intraperitoneal; settings: in vivo
Mus musculus [6] = assay: Anticonvulsant activity in albino CF1 mouse assessed as protection against 32 mA current-induced seizures at 100 mg/kg, ip measured after 0.25 hr; type: functional, organism-based; parameters: dose 100 mg/kg
Mus musculus [7] = assay: Anticonvulsant activity in albino CF1 mouse assessed as protection against 32 mA current-induced seizures at 100 mg/kg, ip measured after 0.5 hr; type: functional, organism-based; parameters: dose 100 mg/kg
Mus musculus [8] = assay: Anticonvulsant activity in albino CF1 mouse assessed as protection against 32 mA current-induced seizures at 100 mg/kg, ip measured after 2 hrs; type: functional, organism-based; parameters: dose 100 mg/kg
Mus musculus [9] = assay: Anticonvulsant activity in albino CF1 mouse assessed as protection against 32 mA current-induced seizures at 100 mg/kg, ip measured after 4 hrs; type: functional, organism-based; parameters: dose 100 mg/kg
Mus musculus [10] = assay: Neurotoxicity in 32 mA current-induced seizure albino CF1 mouse model at 100 mg/kg, ip measured after 0.25 hr; type: toxicity, organism-based; parameters: dose 100 mg/kg, route intraperitoneal; settings: in vivo
Mus musculus [11] = assay: Neurotoxicity in 32 mA current-induced seizure albino CF1 mouse model at 100 mg/kg, ip measured after 1 hr; type: toxicity, organism-based; parameters: dose 100 mg/kg, route intraperitoneal; settings: in vivo
Mus musculus [12] = assay: Neurotoxicity in 32 mA current-induced seizure albino CF1 mouse model at 100 mg/kg, ip measured after 2 hrs; type: toxicity, organism-based; parameters: dose 100 mg/kg, route intraperitoneal; settings: in vivo
Mus musculus [13] = assay: Anticonvulsant activity in albino CF1 mouse assessed as protection against 44 mA current-induced seizures at 100 mg/kg, ip measured after 0.25 hr; type: functional, organism-based; parameters: dose 100 mg/kg
Mus musculus [14] = assay: Anticonvulsant activity in albino CF1 mouse assessed as protection against 44 mA current-induced seizures at 100 mg/kg, ip measured after 2 hrs; type: functional, organism-based; parameters: dose 100 mg/kg
Mus musculus [15] = assay: Neurotoxicity in 44 mA current-induced seizure albino CF1 mouse model at 100 mg/kg, ip measured after 0.5 hr; type: toxicity, organism-based; parameters: dose 100 mg/kg, route intraperitoneal; settings: in vivo
Mus musculus [16] = assay: Neurotoxicity in 44 mA current-induced seizure albino CF1 mouse model at 100 mg/kg, ip measured after 2 hrs; type: toxicity, organism-based; parameters: dose 100 mg/kg, route intraperitoneal; settings: in vivo
Mus musculus [17] = assay: Neurotoxicity in 44 mA current-induced seizure albino CF1 mouse model at 100 mg/kg, ip measured after 4 hrs; type: toxicity, organism-based; parameters: dose 100 mg/kg, route intraperitoneal; settings: in vivo
Rattus norvegicus [18] = assay: Anticonvulsant activity in Sprague-Dawley rat assessed as protection against maximal electroshock-induced seizures at 30 mg/kg, po measured after 0.25 hr; type: functional, organism-based; parameters: dose 30 mg/kg
Rattus norvegicus [19] = assay: Anticonvulsant activity in Sprague-Dawley rat assessed as protection against maximal electroshock-induced seizures at 30 mg/kg, po measured after 1 hr; type: functional, organism-based; parameters: dose 30 mg/kg
Rattus norvegicus [20] = assay: Anticonvulsant activity in Sprague-Dawley rat assessed as protection against maximal electroshock-induced seizures at 30 mg/kg, po measured after 4 hrs; type: functional, organism-based; parameters: dose 30 mg/kg
Rattus norvegicus [21] = assay: Neurotoxicity in MES Sprague-Dawley rat model at 30 mg/kg, po measured after 0.25 hr; type: toxicity, organism-based; parameters: dose 30 mg/kg, route oral; settings: in vivo
Rattus norvegicus [22] = assay: Neurotoxicity in MES Sprague-Dawley rat model at 30 mg/kg, po measured after 0.5 hr; type: toxicity, organism-based; parameters: dose 30 mg/kg, route oral; settings: in vivo
Rattus norvegicus [23] = assay: Neurotoxicity in MES Sprague-Dawley rat model at 30 mg/kg, po measured after 1 hr; type: toxicity, organism-based; parameters: dose 30 mg/kg, route oral; settings: in vivo
Rattus norvegicus [24] = assay: Neurotoxicity in MES Sprague-Dawley rat model at 30 mg/kg, po measured after 4 hrs; type: toxicity, organism-based; parameters: dose 30 mg/kg, route oral; settings: in vivo
Rattus norvegicus [25] = assay: Anticonvulsant activity in Sprague-Dawley rat assessed as protection against maximal electroshock-induced seizures at 30 mg/kg, ip measured after 0.25 hr; type: functional, organism-based; parameters: dose 30 mg/kg
Rattus norvegicus [26] = assay: Anticonvulsant activity in Sprague-Dawley rat assessed as protection against maximal electroshock-induced seizures at 30 mg/kg, ip measured after 0.5 hr; type: functional, organism-based; parameters: dose 30 mg/kg
Rattus norvegicus [27] = assay: Anticonvulsant activity in Sprague-Dawley rat assessed as protection against maximal electroshock-induced seizures at 30 mg/kg, ip measured after 2 hrs; type: functional, organism-based; parameters: dose 30 mg/kg
Rattus norvegicus [28] = assay: Anticonvulsant activity in Sprague-Dawley rat assessed as protection against maximal electroshock-induced seizures at 30 mg/kg, ip measured after 4 hrs; type: functional, organism-based; parameters: dose 30 mg/kg
Rattus norvegicus [29] = assay: Neurotoxicity in MES Sprague-Dawley rat model at 30 mg/kg, ip measured after 0.25 hr; type: toxicity, organism-based; parameters: dose 30 mg/kg, route intraperitoneal; settings: in vivo
Rattus norvegicus [30] = assay: Neurotoxicity in MES Sprague-Dawley rat model at 30 mg/kg, ip measured after 1 hr; type: toxicity, organism-based; parameters: dose 30 mg/kg, route intraperitoneal; settings: in vivo
Rattus norvegicus [31] = assay: Neurotoxicity in MES Sprague-Dawley rat model at 30 mg/kg, ip measured after 2 hrs; type: toxicity, organism-based; parameters: dose 30 mg/kg, route intraperitoneal; settings: in vivo
Rattus norvegicus [32] = assay: Neurotoxicity in MES Sprague-Dawley rat model at 30 mg/kg, ip measured after 4 hrs; type: toxicity, organism-based; parameters: dose 30 mg/kg, route intraperitoneal; settings: in vivo
[33] = Neurotoxicity in ip dosed albino CF1 mouse; type: toxicity, organism-based; settings: in vivo
Mus musculus [34] = assay: Anticonvulsant activity in ip dosed albino CF1 mouse assessed as protection against maximal electroshock-induced seizures measured as time to peak effect; type: functional
Rattus norvegicus [35] = assay: Anticonvulsant activity in ip dosed Sprague-Dawley rat assessed as protection against maximal electroshock-induced seizures; type: functional
Rattus norvegicus [36] = assay: Anticonvulsant activity in ip dosed Sprague-Dawley rat assessed as protection against subcutaneous metrazol-induced seizures; type: functional
[37] = Neurotoxicity in ip dosed Sprague-Dawley rat; type: toxicity, organism-based; settings: in vivo
[38] = Protective index, ratio of TD50 for neurotoxicity in ip dosed Sprague-Dawley rat to ED50 for anticonvulsant activity in ip dosed MES Sprague-Dawley rat model; type: toxicity, organism-based; settings: in vivo, read-out: Ratio TD50/ED50
Mus musculus [39] = assay: Anticonvulsant activity in ip dosed albino CF1 mouse assessed as protection against 44 mA current-induced seizures; type: functional
Rattus norvegicus [40] = assay: Anticonvulsant activity in ip dosed hippocampal kindled albino Sprague-Dawley rat seizure model; type: functional; settings: Hippocampus
Rattus norvegicus [41] = assay: Anticonvulsant activity in ip dosed hippocampal kindled albino Sprague-Dawley rat seizure model assessed as time of rest; type: functional, Hippocampus
Mus musculus [42] = assay: Anticonvulsant activity in ip dosed albino CF1 mouse assessed as protection against iv infusion metrazol-induced seizures; type: functional, organism-based
Mus musculus [43] = assay: Anticonvulsant activity in albino CF1 mouse assessed as protection against iv infusion metrazol-induced seizures measured as weight at 24 mg/kg, ip (reference value: 26.75 grams); type: functional
Mus musculus [44] = assay: Anticonvulsant activity in albino CF1 mouse assessed as protection against iv infusion metrazol-induced seizures measured as time to twitch at 24 mg/kg, ip (reference value: 26.6 seconds); type: functional
Mus musculus [45] = assay: Anticonvulsant activity in albino CF1 mouse assessed as protection against iv infusion metrazol-induced seizures measured as time to twitch at 79 mg/kg, ip (reference value: 26.6 seconds); type: functional
Mus musculus [46] = assay: Anticonvulsant activity in albino CF1 mouse assessed as protection against iv infusion metrazol-induced seizures measured as time to clonus at 24 mg/kg, ip (reference value: 29.4 seconds); type: functional
Mus musculus [47] = assay: Anticonvulsant activity in albino CF1 mouse assessed as protection against iv infusion metrazol-induced seizures measured as time to clonus at 79 mg/kg, ip (reference value: 29.4 seconds); type: functional

SMILES: O=C1NC(=O)[C@@H]2CCCN2[C@H]1c1cccc(OC(F)(F)F)c1
- Activity (Mus musculus [1]): Active
- Activity (Mus musculus [2]): inactive
- Activity (Mus musculus [3]): Toxic
- Activity (Mus musculus [4]): Toxic
- Activity (Mus musculus [5]): Non-toxic
- Activity (Mus musculus [6]): Active
- Activity (Mus musculus [7]): Active
- Activity (Mus musculus [8]): inactive
- Activity (Mus musculus [9]): inactive
- Activity (Mus musculus [10]): Toxic
- Activity (Mus musculus [11]): Non-toxic
- Activity (Mus musculus [12]): Non-toxic
- Activity (Mus musculus [13]): Active
- Activity (Mus musculus [14]): inactive
- Activity (Mus musculus [15]): Toxic
- Activity (Mus musculus [16]): Non-toxic
- Activity (Mus musculus [17]): Non-toxic
- Activity (Rattus norvegicus [18]): inactive
- Activity (Rattus norvegicus [19]): inactive
- Activity (Rattus norvegicus [20]): inactive
- Activity (Rattus norvegicus [21]): Non-toxic
- Activity (Rattus norvegicus [22]): Non-toxic
- Activity (Rattus norvegicus [23]): Non-toxic
- Activity (Rattus norvegicus [24]): Non-toxic
- Activity (Rattus norvegicus [25]): Active
- Activity (Rattus norvegicus [26]): Active
- Activity (Rattus norvegicus [27]): inactive
- Activity (Rattus norvegicus [28]): inactive
- Activity (Rattus norvegicus [29]): Non-toxic
- Activity (Rattus norvegicus [30]): Non-toxic
- Activity (Rattus norvegicus [31]): Non-toxic
- Activity (Rattus norvegicus [32]): Non-toxic
- TD50 [33]: 252 µmol/kg
- Time (Mus musculus [34]): 0.25 h
- ED50 (Rattus norvegicus [35]): 40 µmol/kg
- ED50 (Rattus norvegicus [36]): 41 µmol/kg
- TD50 [37]: 114 µmol/kg
- selectivity ratio [38]: 2.8
- ED50 (Mus musculus [39]): 171 µmol/kg
- ED50 (Rattus norvegicus [40]): 48 µmol/kg
- Time (Rattus norvegicus [41]): 0.25 h
- Activity (Mus musculus [42]): Dose-dependent effect
- Activity (Mus musculus [43]): 26.8 g
- Time (Mus musculus [44]): 33.3 s
- Time (Mus musculus [45]): 63.1 s
- Time (Mus musculus [46]): 39.4 s
- Time (Mus musculus [47]): 94.6 s
